Data: patent publication US20210121527A1, “METHODS OF TREATING MINIMAL RESIDUAL CANCER” (ICAHN SCHOOL OF MEDICINE AT MOUNT SINAI, priority 2018, published 2021)
pIC50: −log10 of the molar value.

Columns and labels:
[1] = molecular target: T1, PERK phosphorylation in MCF10A-HER2 cells (Homo sapiens, UniProt Q9NZJ5); assay: Immunoblot of PERK phosphorylation in stressed cells; format: cell-based; conditions: 2 μM; cells in suspension for 24 hours
T1 construct: endogenous in cells; host or cells: MCF10A-HER2 cells in suspension for 24 hours
T1 sequence (Q9NZJ5 30-1116): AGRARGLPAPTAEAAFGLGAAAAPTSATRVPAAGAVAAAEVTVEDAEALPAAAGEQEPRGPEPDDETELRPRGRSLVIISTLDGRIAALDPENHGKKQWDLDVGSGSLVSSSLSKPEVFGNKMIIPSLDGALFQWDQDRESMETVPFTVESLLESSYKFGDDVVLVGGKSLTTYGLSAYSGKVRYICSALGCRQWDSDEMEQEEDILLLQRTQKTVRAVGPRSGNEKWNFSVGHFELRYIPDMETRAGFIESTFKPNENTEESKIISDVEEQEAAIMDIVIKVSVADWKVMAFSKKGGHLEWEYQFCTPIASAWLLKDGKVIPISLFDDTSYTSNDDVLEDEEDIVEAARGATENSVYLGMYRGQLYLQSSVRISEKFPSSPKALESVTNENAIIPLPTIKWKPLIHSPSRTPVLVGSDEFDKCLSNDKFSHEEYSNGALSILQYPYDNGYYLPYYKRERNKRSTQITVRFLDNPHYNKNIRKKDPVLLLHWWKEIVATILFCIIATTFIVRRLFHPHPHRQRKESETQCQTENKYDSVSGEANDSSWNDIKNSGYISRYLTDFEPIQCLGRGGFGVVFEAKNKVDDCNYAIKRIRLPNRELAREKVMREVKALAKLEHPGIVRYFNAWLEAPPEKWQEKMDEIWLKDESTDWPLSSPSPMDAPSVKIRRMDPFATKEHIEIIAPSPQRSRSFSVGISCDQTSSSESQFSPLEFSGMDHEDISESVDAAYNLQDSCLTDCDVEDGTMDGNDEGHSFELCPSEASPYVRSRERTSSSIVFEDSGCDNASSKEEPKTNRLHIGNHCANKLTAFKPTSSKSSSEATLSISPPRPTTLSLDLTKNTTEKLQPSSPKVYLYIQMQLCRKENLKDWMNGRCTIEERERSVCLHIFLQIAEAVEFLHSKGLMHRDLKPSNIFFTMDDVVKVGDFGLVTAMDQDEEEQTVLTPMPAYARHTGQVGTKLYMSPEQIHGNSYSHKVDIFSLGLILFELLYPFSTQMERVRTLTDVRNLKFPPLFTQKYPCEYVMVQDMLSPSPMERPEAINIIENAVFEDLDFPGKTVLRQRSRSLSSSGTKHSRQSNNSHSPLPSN

PERK = molecular target: T2, PERK (Homo sapiens, UniProt Q9NZJ5); assay: Cell-based TR-FRET assay of tunicamycin-induced eIF2a phosphorylation in 293 cells
T2 construct: endogenous in cells; host or cells: GripTite 293 cells expressing GFP-eIF2a
T2 sequence (Q9NZJ5 30-1116): T1 sequence (Q9NZJ5 30-1116)
Protocol: Cell-based TR-FRET assay: Briefly, GripTite™ 293 cells (Invitrogen) expressing GFP-eIF2a were seeded at 10,000 cells per well in 384-well plates and allowed to attach overnight. Cells were pre-treated with test compounds for 1 hour. Tunicamycin (1 μM) was added to induce PERK activity and the plates were incubated at 37° C. for 2 hours. The culture media was removed and the cells were lysed in buffer consisting of 20 mM Tris-HCl, pH 7.5, 150 mM NaCl, 5 mM EDTA, 1% NP-40, 5 mM NaF, Protease inhibitors (Sigma Cat # P8340), Phosphatase inhibitors (Sigma Cat # P2850), and 2 nM Terbium-labelled anti-phospho-eIF2 antibody (Invitrogen Cat # PM43121). Cell lysates were incubated for 2 hours in the dark at room temperature and fluorescence was monitored in an EnVison® Multilabel reader (PerkinElmer, Waltham, Mass.).

[2] = molecular target: T3, Recombinant human EIF2AK3 (PERK) catalytic domain (Homo sapiens, UniProt Q9NZJ5); assay: PERK biochemical TR-FRET kinase assay using purified eIF2a as substrate; conditions: read-out: PERK Enzyme IC50
T3 construct: catalytic domain (amino acids 536-1116; Cat # PV5107); purchased Invitrogen (Carlsbad, Calif.) PV5107
T3 sequence (Q9NZJ5 536-1116): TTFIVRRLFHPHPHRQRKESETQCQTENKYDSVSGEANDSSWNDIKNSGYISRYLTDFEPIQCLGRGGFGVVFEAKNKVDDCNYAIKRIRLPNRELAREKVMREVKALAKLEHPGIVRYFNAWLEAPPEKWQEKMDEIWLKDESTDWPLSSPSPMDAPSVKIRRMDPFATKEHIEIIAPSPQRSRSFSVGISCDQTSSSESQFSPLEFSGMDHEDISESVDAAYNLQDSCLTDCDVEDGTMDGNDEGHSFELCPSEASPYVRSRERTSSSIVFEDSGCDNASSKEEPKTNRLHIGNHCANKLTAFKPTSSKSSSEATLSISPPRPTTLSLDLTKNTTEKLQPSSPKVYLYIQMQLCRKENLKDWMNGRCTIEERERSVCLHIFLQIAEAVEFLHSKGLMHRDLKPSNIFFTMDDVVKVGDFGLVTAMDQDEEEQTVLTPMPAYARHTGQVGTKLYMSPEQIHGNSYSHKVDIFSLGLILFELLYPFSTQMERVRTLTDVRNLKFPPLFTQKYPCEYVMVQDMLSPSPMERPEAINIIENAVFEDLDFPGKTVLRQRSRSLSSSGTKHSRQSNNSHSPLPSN
Protocol: TR-FRET kinase assays were performed in the absence or presence of inhibitors in a reaction buffer consisting of 50 mM HEPES, pH 7.5, 10 mMMgCl2, 1.0 mM EGTA, and 0.01% Brij-35, and 100-200 nM GFP-eIF2a substrate. […] Following the addition of test compound, the reaction was initiated by addition of enzyme and incubated at room temperature for 45 minutes. The reaction was stopped by addition of EDTA to a final concentration of 10 mM and Terbium-labelled phospho-eIF2α antibody was added at a final concentration of 2 nM and incubated for 90 minutes. The resulting fluorescence was monitored in an EnVison® Multilabel reader (PerkinElmer, Waltham, Mass.). TR-FRET ratios and the resulting IC50 values were determined from the fitted inhibition curves. Biochemical specificity profiling was performed at Cerep (Redmond, Wash.) and DiscoverX (San Diego, Calif.).

Row | Structure (SMILES) | PERK phosphorylation (immunoblot) [1] | pIC50 (PERK) | pIC50 [2]
1 | Cc1cc(NC(=O)[C@H](O)c2cccc(F)c2)ccc1-c1cn(C)c2ncnc(N)c12 [LY3, (2R)-N-[4-(4-amino-7-methyl-pyrrolo[2,3-d]pyrimidin-5-yl)-3-methyl-phenyl]-2-(3-fluorophenyl)-2-hydroxy-acetamide] | inhibition of PERK phosphorylation | 7.59 | 8.70
2 | Cc1cc(NC(=O)[C@H](O)c2cc(F)cc(F)c2)ccc1-c1cnc(N)c(C(=O)NC(C)C)c1 [LY4, 2-amino-5-[4-[[(2R)-2-(3,5-difluorophenyl)-2-hydroxy-acetyl]amino]-2-methyl-phenyl]-N-isopropyl-pyridine-3-carboxamide] | inhibition of PERK phosphorylation | 7.27 | 8.70
3 | Cc1cccc(CC(=O)N2CCc3c2ccc(-c2cn(C)c4ncnc(N)c24)c3F)n1 [GSK2656157, reference compound] | inhibition of PERK phosphorylation | 7.44 | 8.10
4 | CNC(=O)c1nc(-c2ccc(NC(=O)[C@H](O)c3cc(F)cc(F)c3)cc2C)cnc1N [LY2, 3-amino-6-[4-[[(2R)-2-(3,5-difluorophenyl)-2-hydroxy-acetyl]amino]-2-methyl-phenyl]-N-methyl-pyrazine-2-carboxamide] | inhibition of PERK phosphorylation | 6.93 | 8.70
